Patent US8298522B1, “Methods of modulating MUC1 expression to inhibit inflammation” (priority 2005, dated 2012)
*1 amine or outer side, *2 acyl side, *3 side chain or, on linkers, in order; H or OH if unused. Where a SMILES comes first, the peptide text is derived from it. Bridges are numbered along the chain shown (N, C = ends). Roman numbers before positions name the chains, in order. [ ]: non-standard residue; d: D form. Actinocin(9to1) = Cc1c2oc3c(C)ccc(C(=O)[*:1])c3nc-2c(C(=O)[*:2])c(N)c1=O; NMeV = CN[C@H](C(=O)O)C(C)C; d = 2'-deoxy (DNA); Sar = CNCC(=O)O; r = 2'-OH (RNA)

Columns and labels:
[1] = tested on: MUC1 protein in A549 cells; conditions: A549 cells, 5.0 μg/ml AcD or 10 μg/ml Chx, no NE
Experimental: Confluent A549 cells were incubated in the presence or absence of 5.0 μg/ml of actinomycin (AcD) or 10 μg/ml of cycloheximide (Chx) for 1 hr and either non-treated or treated for 24 hr with 100 nM of NE. MUC1 protein levels in cell lysates (A) and spent media (B) were measured by ELISA. Each bar represents the mean±SEM (n=3). […] (C) Aliquots of spent media obtained from confluent A549 cells were non-treated (0 hr) or treated for 24 hr with 100 nM NE or vehicle control and MUC1 levels in the spent media determined by ELISA. Each bar represents the mean±SEM (n=3).
A549 cells were seeded at 5.0×10^4 cells/well in 24-well plates in Dulbecco's Modified Eagle Medium (DMEM) containing 10% fetal bovine serum (FBS), 100 U/ml penicillin, and 100 μg/ml streptomycin (all from Invitrogen, Carlsbad, Calif.) and incubated at 37° C. in a humidified CO2 incubator. Confluent monolayers were washed with serum-free DMEM and treated with 100 nM (2.6 U/ml) NE or vehicle control (PBS) for 24 hr. In some experiments, the cells were pretreated for 1 hr with 5.0 μg/ml of actinomycin D or 10 μg/ml of cycloheximide prior to NE treatment. Following treatment, cell-conditioned media were collected, and the cells were washed with PBS and lysed with 500 μl/well of PBS containing 1.0% Triton X-100, 1.0% sodium deoxycholate, 1.0% protease inhibitor cocktail, and 2.0 mM phenylmethylsulfonyl fluoride (PMSF). Lysates and conditioned media were incubated for 20 min at 80° C. to inactivate residual NE, insoluble material removed by centrifugation at 14,000×g for 10 min at 4° C., and protein concentrations measured by the procedure of Bradford using bovine serum albumin as standard.
ELISA. A549 cell lysates or cell-conditioned culture media were centrifuged at 10,000×g for 10 min at 4° C., added in triplicate to 96-well ELISA plates (MaxiSorb™, Nalge Nunc, Rochester, N.Y.), and incubated overnight at 4° C. Wells were blocked for 1 hr at room temperature (about 22° C.) with PBS, pH 7.0, containing 10 mg/ml BSA and 50 mg/ml sucrose and washed with PBS containing 0.05% Tween 20 (PBS-T). The samples were reacted for 2 hr at room temperature with 200 μg/ml of primary MUC1 antibody (GP1.4), washed with PBS-T, reacted for 2 hr at room temperature with 200 μg/ml of secondary antibody (peroxidase-conjugated goat antimouse IgG) (KPL, Gaithersburg, Md.), and washed with PBS-T. Bound antibodies were detected with tetramethylbenzidine substrate (SureBlue™, KPL), the substrate reaction stopped with 1 N HCl, and absorbencies at 450 nm measured using a microplate spectrophotometer (Dexall, Gaithersburg, Md.).

TLR5 [2] = target: T1, TLR5 (Homo sapiens, UniProt O60602); assay: cell-based or functional assay
[3] = tested on: MUC1 transcription (MEK/ERK signaling pathway); assay: TNF-α induced MUC1 expression in A549 lung epithelial cells; type: cell-based, human
Description: TNF-α induces MUC1 expression through a MAP kinase pathway in human lung epithelial cells. TNF-α stimulates MUC1 transcription and protein expression in lung epithelial cells. Activation of MAP kinases and NF-κB was verified using Western blot analysis. […] TNF-α activate all three MAP kinases (ERK, p38, and JNK) as well as NF-κB. […] TNF-α stimulates MUC1 production in A549 cells through transcriptional activation via the MEK/ERK signaling pathway.

MUC1 = MUC1 siRNA knockdown of MUC1 expression in primary NHBE cells (immunoblot, FACS); type: cell-based, human; conditions: 1.5 μg siRNA, vs control RNA
Experimental: (§1) Primary NHBE cells were nucleofected with 1.5 μg of a MUC1 siRNA or a non-targeting control RNA. At 48 h post-nucleofection, total MUC1 protein was determined by immunoblotting as described (20) (A) and cell surface MUC1 was determined by FACS analysis using anti-MUC1 (GP1.4, mouse IgG1, κ, Biomeda) as primary antibody and R-Phycoerythrin-conjugated goat anti-mouse IgG (Santa Cruz) as secondary antibody. Mouse IgG1 (κ isotype, eBioscience) was used as primary antibody to determine threshold fluorescence signal. (B). (C) Cells were stimulated with 10 ng/ml of flagellin for 6 h and IL-8 levels in basolateral medium were measured.
Macrophages were harvested from BALF or the peritoneal space, and erythrocytes lysed with 10 mM Tris-HCl, pH 7.2 containing 150 mM NH4Cl. Peritoneal macrophages (PM) were harvested after treating mice i.p. with 3% thioglycollate for 3 days. The recovered cells consisted of >95% macrophages as determined by immunofluorescence using the F4/80 macrophage marker (eBioscience). Cells were seeded in 24-well tissue culture plates at 1.0×10^5 cells/well in DMEM containing 10% FBS, […], and allowed to adhere for 24 h before flagellin or LPS (PA10, Sigma) treatment. […]

[4] = tested on: IL-8 levels in primary NHBE cells; assay: Flagellin-induced IL-8 levels in MUC1 siRNA-treated primary NHBE cells; type: cell-based, human; conditions: 10 ng/ml flagellin 6 h, basolateral medium
Experimental: as §1
Macrophages were harvested from BALF or the peritoneal space, and erythrocytes lysed with 10 mM Tris-HCl, pH 7.2 containing 150 mM NH4Cl. Peritoneal macrophages (PM) were harvested after treating mice i.p. with 3% thioglycollate for 3 days. The recovered cells consisted of >95% macrophages as determined by immunofluorescence using the F4/80 macrophage marker (eBioscience). […]
(§2) Mouse KC and TNF-α and human IL-8 were quantified by ELISA using commercially available antibodies (eBioscience; R&D Systems). All samples were analyzed in triplicate and standard curves were performed on each plate.

[5] = tested on: ELAM-1 promoter activity in A549 lung carcinoma cells; assay: ELAM-1 promoter-luciferase assay in A549 cells after MUC1 siRNA transfection; type: cell-based, human; conditions: 8.0 nM siRNA 24 h, 10 ng/ml flagellin 6 h
Experimental: To assess the effects of endogenous MUC1 expression on NF-κB activation, ELAM-1 promoter activity in A549 lung carcinoma cells following transfection with MUC1 with small interfering RNA (siRNA) duplexes was measured. Inhibition of MUC1 expression was confirmed by FACS analysis following treatment with the MUC1 siRNA but not a control RNA (data not shown).
Referring now to FIG. 3, twenty four hours after transfection with the control RNA or MUC1 siRNA, A549 cells were treated with 10 ng/ml of flagellin or an equivalent amount of the fliC control for 6 hours. Cell lysates were prepared and luciferase activity measured as indicated in the examples section. […]
HEK293T and A549 cells were seeded in 24-well plates at 2×10^5 and 5×10^4 cells/well respectively, incubated overnight, and transfected with the 0.4 μg/well of the NF-κB responsive pELAM-1 promoter-luciferase plasmid and 10 ng/well of the phRL-TK plasmid (Promega) as an internal control using 2 μl/well of Lipofectamine™2000 (Invitrogen) according to the manufacturer's instructions. The cells were incubated for 24 h at 37° C. in 5% CO2, treated with 10 ng/ml PAK flagellin or an equivalent volume of the fliC negative control for 6 h, and relative luciferase activity determined. […] Data are expressed as mean relative luciferase activity±SEM of triplicate or quadruplicate determinations.

[6] = tested on: ELAM-1 promoter (NF-κB activation, TLR5 signaling) in HEK293T cells; assay: ELAM-1 promoter-luciferase reporter assay in HEK293T cells; type: cell-based, human; conditions: 10 ng/ml PAK flagellin, 6 h
Description: The relationship between TLR5 and MUC1 signaling in response to flagellin was investigated utilizing TLR5-expressing cells in the absence or presence of MUC1 expression. Initially, we screened a number of different airway and non-airway cell lines by Western blotting and/or real-time PCR with the goal of identifying a TLR5+/MUC1− host cells for transfection of the pMUC1 expression plasmid. Referring now to FIG. 1A, (A) HEK293T cells were transfected with pcDNA3.1 empty vector or the pMUC1 expression plasmid. After trypsinization, cells were reacted with normal mouse IgG or mouse anti-MUC1 antibody followed by PE-conjugated goat anti-mouse IgG antibody and examined by FACS analysis. […] Cell lysates were prepared and relative luciferase activity measured as indicated in Materials and Methods. […]
HEK293T and A549 cells were seeded in 24-well plates at 2×10^5 and 5×10^4 cells/well respectively, incubated overnight, and transfected with the 0.4 μg/well of the NF-κB responsive pELAM-1 promoter-luciferase plasmid and 10 ng/well of the phRL-TK plasmid (Promega) as an internal control using 2 μl/well of Lipofectamine™2000 (Invitrogen) according to the manufacturer's instructions. The cells were incubated for 24 h at 37° C. in 5% CO2, treated with 10 ng/ml PAK flagellin or an equivalent volume of the fliC negative control for 6 h, and relative luciferase activity determined. […]

TLR5 [7] = target: T1, TLR5; assay: Flagellin-driven IL-8 release in HEK293T cells with or without transfected TLR5; type: cell-based; parameters: V5-His (vector pEF6/V5-His); expressed in transfected cells; host or cells: HEK293T
Experimental: TLR5 mediates flagellin-stimulated innate immune responses. Because TLR5 and MUC1/Muc1 are flagellin receptors and both are expressed by airway macrophages and epithelial cells the relationship between MUC1 and TLR5 in response to flagellin in HEK293T cells stably transfected with a MUC1 expressing plasmid and flagellin-driven IL-8 release was determined following transient transfection with a TLR5 expressing plasmid. HEK293T cells express TLR5 but not MUC1. […] Flagellin-induced increase in IL-8 release was completely abolished in cells co-transfected with MUC1 and TLR5. […] HEK293T cells stably transfected with the pcDNA3.1 empty vector (A) or plasmids encoding the full-length MUC1 or MUC1-ACT (B) were transiently transfected with a TLR5 expression plasmid or empty vector. At 24 h post-transfection, the cells were treated for 6 h with 10 ng/ml of flagellin or PBS, and IL-8 levels in medium were measured. […]
as §2

T1 sequence (O60602 21-858): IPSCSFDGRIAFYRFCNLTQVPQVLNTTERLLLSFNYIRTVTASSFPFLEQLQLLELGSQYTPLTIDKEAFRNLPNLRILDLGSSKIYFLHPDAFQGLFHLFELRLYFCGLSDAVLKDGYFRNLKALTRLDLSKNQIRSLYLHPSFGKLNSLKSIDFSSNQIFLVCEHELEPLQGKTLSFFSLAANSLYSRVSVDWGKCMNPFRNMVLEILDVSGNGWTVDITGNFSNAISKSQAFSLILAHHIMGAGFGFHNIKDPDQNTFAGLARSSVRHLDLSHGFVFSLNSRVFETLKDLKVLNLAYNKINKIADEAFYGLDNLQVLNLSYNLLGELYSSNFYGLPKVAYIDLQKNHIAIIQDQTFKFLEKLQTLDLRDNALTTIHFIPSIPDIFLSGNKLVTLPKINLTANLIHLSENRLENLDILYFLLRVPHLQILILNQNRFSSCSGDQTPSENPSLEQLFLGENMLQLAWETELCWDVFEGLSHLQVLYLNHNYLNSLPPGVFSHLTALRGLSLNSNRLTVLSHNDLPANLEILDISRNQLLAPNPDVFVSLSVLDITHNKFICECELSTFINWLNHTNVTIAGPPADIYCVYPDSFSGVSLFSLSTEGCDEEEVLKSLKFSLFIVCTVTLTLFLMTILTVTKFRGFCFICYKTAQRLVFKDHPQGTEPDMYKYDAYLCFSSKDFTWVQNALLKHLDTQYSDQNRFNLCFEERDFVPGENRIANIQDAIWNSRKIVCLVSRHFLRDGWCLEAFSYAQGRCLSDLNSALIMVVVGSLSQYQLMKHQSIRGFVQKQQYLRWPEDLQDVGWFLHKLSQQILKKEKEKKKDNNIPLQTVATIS

C[C@@H]1C[C@@H]([C@H](O)CC2CC(=O)NC(=O)C2)C(=O)[C@@H](C)C1 [Chx, cycloheximide]
effect of treatment alone on cellular MUC1 levels [1]: did not significantly affect

P. aeruginosa strain K (PAK) flagellin (from UniProt P21184 2-394) (ligand)
IL-8 release (HEK293T cells transfected with empty vector, endogenous TLR5; 10 ng/ml flagellin for 6 h vs PBS) (TLR5 [2]): 55 % increase
IL-8 release (HEK293T cells transiently transfected with TLR5 expression plasmid; 10 ng/ml flagellin for 6 h vs PBS) (TLR5 [2]): 164 % increase
relative luciferase activity (ELAM-1 promoter-luciferase reporter, HEK293T cells, 10 ng/ml flagellin vs fliC negative control) (TLR5 [2]): 10 fold

TNF-α
effect on MUC1 protein and mRNA levels ([3]; human lung epithelial (A549) cells): increased both MUC1 protein and mRNA levels

N#CC(=C(/N)Sc1ccccc1N)/C(C#N)=C(\N)Sc1ccccc1N [U0126]
effect on TNF-α induced MUC1 transcription ([3]; A549 cells, pretreatment with U0126): completely blocked

Cc1c2oc3c(C)ccc(C(=O)N[C@@H]4C(=O)N[C@H](C(C)C)C(=O)N5CCC[C@H]5C(=O)N(C)CC(=O)N(C)[C@@H](C(C)C)C(=O)O[C@@H]4C)c3nc-2c(C(=O)N[C@@H]2C(=O)N[C@H](C(C)C)C(=O)N3CCC[C@H]3C(=O)N(C)CC(=O)N(C)[C@@H](C(C)C)C(=O)O[C@@H]2C)c(N)c1=O [AcD, actinomycin D] (I: T[dV]P[Sar][NMeV] / II: T[dV]P[Sar][NMeV]; ester I:1-I:C, II:1-II:C; linker I:N-II:N via Actinocin(9to1))
effect of treatment alone on cellular MUC1 levels [1]: did not significantly affect

MUC1 siRNA: 21-bp siRNA with a sequence derived from the MUC1 gene (Dharmacon); sense SEQ ID NO: 2, antisense SEQ ID NO: 3 (sense GUUCAGUGCCCAGCUCUACTT; antisense GUAGAGCUGGGCACUGAACTT; sugars from the 5' end r19 d2, backbone not given here)
decrease in the number of cells with surface MUC1 expression (MUC1; 48 h, FACS): 67%
knockdown of total cellular MUC1 expression (MUC1; 48 h post-nucleofection, immunoblot): approximately 95%
greater flagellin-induced IL-8 levels compared with control RNA [4]: 50%
effect on flagellin-induced ELAM-1 promoter activity compared with control RNA [5]: significantly increased

B1: PAK flagellin: P. aeruginosa strain K flagellin purified by differential centrifugation, single 50 kDa protein band (protein)
chain: ALTVNTNIASLNTQRNLNNSSASLNTSLQRLSTGSRINSAKDDAAGLQIANRLTSQVNGLNVATKNANDGISLAQTAEGALQQSTNILQRMRDLSLQSANGSNSDSERTALNGEVKQLQKELDRISNTTTFGGRKLLDGSFGVASFQVGSAANEIISVGIDEMSAESLNGTYFKADGGGAVTAATASGTVDIAIGITGGSAVNVKVDMKGNETAEQAAAKIAAAVNDANVGIGAFSDGDTISYVSKAGKDGSGAITSAVSGVVIADTGSTGVGTAAGVTPSATAFAKTNDTVAKIDISTAKGAQSAVLVIDEAIKQIDAQRADLGAVQNRFDNTINNLKNIGENVSAARGRIEDTDFAAETANLTKNQVLQQAGTAILAQANQLPQSVLSLLR
increase in relative luciferase activity (ELAM-1 promoter) compared with fliC negative control [6]: greater than 10 fold
increase in IL-8 release compared with PBS treatment (TLR5 [7]; HEK293T cells transfected with TLR5, 10 ng/ml flagellin 6 h): 164%
increase in IL-8 release compared with PBS treatment (TLR5 [7]; HEK293T cells transfected with empty vector, 10 ng/ml flagellin 6 h): 55%
